The source made the active and inactive calls. The calls are words filed in the database; no cut-off is given here.
Legend:
[1] = molecular target: Serine/threonine-protein kinase ATR (Homo sapiens) (UniProt Q13535); test: Inhibition of ATR in human U2OS cells assessed as reduction in etoposide-induced Chk-1 phosphorylation at Ser345 residue at 10 uM preincubated for 1 hr followed by etoposide challenge measured after 20 mins by Western blot analysis; type: cell-based
[2] = molecular target: Serine/threonine-protein kinase ATR (Homo sapiens) (UniProt Q13535); test: Inhibition of ATR in human U2OS cells assessed as reduction in hydroxyurea-induced Chk-1 phosphorylation at Ser345 residue at 10 uM preincubated for 1 hr followed by hydroxyurea challenge measured after 1 hr by Western blot analysis; type: cell-based
[3] = molecular target: Serine-protein kinase ATM (Homo sapiens) (UniProt Q13315); test: Inhibition of ATM in human U2OS cells assessed as reduction in hydroxyurea-induced Chk-2 phosphorylation at Thr68 residue at 10 uM preincubated for 1 hr followed by hydroxyurea challenge measured after 1 hr by Western blot analysis; type: cell-based
Ramos = test: Induction of apoptosis in human Ramos cells assessed as increase PARP-1 cleavage at 10 uM after 48 hrs by Western blot analysis; type: functional, cell-based
RPMI-8226 = test: Growth inhibition of human RPMI8226 cells assessed as cell growth at 10 uM incubated for 48 hrs by sulforhodamine B assay; type: functional; details: RPMI-8226, 48 h, read-out: Activity
A549 = test: Growth inhibition of human A549/ATCC cells assessed as cell growth at 10 uM incubated for 48 hrs by sulforhodamine B assay; type: functional; details: A549, 48 h, read-out: Activity
HOP-62 = test: Growth inhibition of human HOP62 cells assessed as cell growth at 10 uM incubated for 48 hrs by sulforhodamine B assay; type: functional; details: HOP-62, 48 h, read-out: Activity
NCI-H226 = test: Growth inhibition of human NCI-H226 cells assessed as cell growth at 10 uM incubated for 48 hrs by sulforhodamine B assay; type: functional; details: NCI-H226, 48 h, read-out: Activity
COLO 205 = test: Growth inhibition of human COLO205 cells assessed as cell growth at 10 uM incubated for 48 hrs by sulforhodamine B assay; type: functional; details: COLO 205, 48 h, read-out: Activity
HCC 2998 = test: Growth inhibition of human HCC2998 cells assessed as cell growth at 10 uM incubated for 48 hrs by sulforhodamine B assay; type: functional; details: HCC 2998, 48 h, read-out: Activity
HCT-116 = test: Growth inhibition of human HCT116 cells assessed as cell growth at 10 uM incubated for 48 hrs by sulforhodamine B assay; type: functional; details: HCT-116, 48 h, read-out: Activity
SF-268 = test: Growth inhibition of human SF268 cells assessed as cell growth at 10 uM incubated for 48 hrs by sulforhodamine B assay; type: functional; details: SF-268, 48 h, read-out: Activity
SF-539 = test: Growth inhibition of human SF539 cells assessed as cell growth at 10 uM incubated for 48 hrs by sulforhodamine B assay; type: functional; details: SF-539, 48 h, read-out: Activity
SNB-75 = test: Growth inhibition of human SNB75 cells assessed as cell growth at 10 uM incubated for 48 hrs by sulforhodamine B assay; type: functional; details: SNB-75, 48 h, read-out: Activity
U-251 = test: Growth inhibition of human U251 cells assessed as cell growth at 10 uM incubated for 48 hrs by sulforhodamine B assay; type: functional; details: U-251, 48 h, read-out: Activity
LOX IMVI = test: Growth inhibition of human LOXIMVI cells assessed as cell growth at 10 uM incubated for 48 hrs by sulforhodamine B assay; type: functional; details: read-out: Activity
M14 = test: Growth inhibition of human M14 cells assessed as cell growth at 10 uM incubated for 48 hrs by sulforhodamine B assay; type: functional; details: M14, 48 h, read-out: Activity
MDA-MB-435 = test: Growth inhibition of human MDA-MB-435 cells assessed as cell growth at 10 uM incubated for 48 hrs by sulforhodamine B assay; type: functional; details: MDA-MB-435, 48 h, read-out: Activity
SK-MEL-2 = test: Growth inhibition of human SK-MEL-2 cells assessed as cell growth at 10 uM incubated for 48 hrs by sulforhodamine B assay; type: functional; details: SK-MEL-2, 48 h, read-out: Activity
OVCAR-3 = test: Growth inhibition of human OVCAR3 cells assessed as cell growth at 10 uM incubated for 48 hrs by sulforhodamine B assay; type: functional; details: OVCAR-3, 48 h, read-out: Activity
OVCAR-5 = test: Growth inhibition of human OVCAR5 cells assessed as cell growth at 10 uM incubated for 48 hrs by sulforhodamine B assay; type: functional; details: OVCAR-5, 48 h, read-out: Activity
NCI/ADR-RES = test: Growth inhibition of human NCI/ADR-RES cells assessed as cell growth at 10 uM incubated for 48 hrs by sulforhodamine B assay; type: functional; details: read-out: Activity
SK-OV-3 = test: Growth inhibition of human SKOV3 cells assessed as cell growth at 10 uM incubated for 48 hrs by sulforhodamine B assay; type: functional; details: SK-OV-3, 48 h, read-out: Activity
A498 = test: Growth inhibition of human A498 cells assessed as cell growth at 10 uM incubated for 48 hrs by sulforhodamine B assay; type: functional; details: A498, 48 h, read-out: Activity
CAKI-1 = test: Growth inhibition of human Caki1 cells assessed as cell growth at 10 uM incubated for 48 hrs by sulforhodamine B assay; type: functional; details: CAKI-1, 48 h, read-out: Activity
RXF 393 = test: Growth inhibition of human RXF393 cells assessed as cell growth at 10 uM incubated for 48 hrs by sulforhodamine B assay; type: functional; details: RXF 393, 48 h, read-out: Activity
SN12C = test: Growth inhibition of human SN12C cells assessed as cell growth at 10 uM incubated for 48 hrs by sulforhodamine B assay; type: functional; details: read-out: Activity
PC-3 = test: Growth inhibition of human PC3 cells assessed as cell growth at 10 uM incubated for 48 hrs by sulforhodamine B assay; type: functional; details: PC-3, 48 h, read-out: Activity
DU-145 = test: Growth inhibition of human DU145 cells assessed as cell growth at 10 uM incubated for 48 hrs by sulforhodamine B assay; type: functional; details: DU-145, 48 h, read-out: Activity
MDA-MB-231 = test: Growth inhibition of human MDA-MB-231 cells assessed as cell growth at 10 uM incubated for 48 hrs by sulforhodamine B assay; type: functional; details: MDA-MB-231, 48 h, read-out: Activity
Hs-578T = test: Growth inhibition of human Hs578T cells assessed as cell growth at 10 uM incubated for 48 hrs by sulforhodamine B assay; type: functional; details: read-out: Activity
MDA-MB-468 = test: Growth inhibition of human MDA-MB-468 cells assessed as cell growth at 10 uM incubated for 48 hrs by sulforhodamine B assay; type: functional; details: MDA-MB-468, 48 h, read-out: Activity
[4] = molecular target: Serine/threonine-protein kinase ATR (Homo sapiens) (UniProt Q13535); test: Inhibition of ATR in human U2OS cells assessed as reduction in hydroxyurea-induced Chk-1 phosphorylation at Ser345 residue by measuring ratio of GAPDH level to phosphorylated Chk-1 level at 3 uM preincubated for 1 hr followed by hydroxyurea challenge measured after 2 hrs by Western blot analysis; type: cell-based

Sequence of Serine/threonine-protein kinase ATR (Homo sapiens) (Q13535 whole entry, looked up): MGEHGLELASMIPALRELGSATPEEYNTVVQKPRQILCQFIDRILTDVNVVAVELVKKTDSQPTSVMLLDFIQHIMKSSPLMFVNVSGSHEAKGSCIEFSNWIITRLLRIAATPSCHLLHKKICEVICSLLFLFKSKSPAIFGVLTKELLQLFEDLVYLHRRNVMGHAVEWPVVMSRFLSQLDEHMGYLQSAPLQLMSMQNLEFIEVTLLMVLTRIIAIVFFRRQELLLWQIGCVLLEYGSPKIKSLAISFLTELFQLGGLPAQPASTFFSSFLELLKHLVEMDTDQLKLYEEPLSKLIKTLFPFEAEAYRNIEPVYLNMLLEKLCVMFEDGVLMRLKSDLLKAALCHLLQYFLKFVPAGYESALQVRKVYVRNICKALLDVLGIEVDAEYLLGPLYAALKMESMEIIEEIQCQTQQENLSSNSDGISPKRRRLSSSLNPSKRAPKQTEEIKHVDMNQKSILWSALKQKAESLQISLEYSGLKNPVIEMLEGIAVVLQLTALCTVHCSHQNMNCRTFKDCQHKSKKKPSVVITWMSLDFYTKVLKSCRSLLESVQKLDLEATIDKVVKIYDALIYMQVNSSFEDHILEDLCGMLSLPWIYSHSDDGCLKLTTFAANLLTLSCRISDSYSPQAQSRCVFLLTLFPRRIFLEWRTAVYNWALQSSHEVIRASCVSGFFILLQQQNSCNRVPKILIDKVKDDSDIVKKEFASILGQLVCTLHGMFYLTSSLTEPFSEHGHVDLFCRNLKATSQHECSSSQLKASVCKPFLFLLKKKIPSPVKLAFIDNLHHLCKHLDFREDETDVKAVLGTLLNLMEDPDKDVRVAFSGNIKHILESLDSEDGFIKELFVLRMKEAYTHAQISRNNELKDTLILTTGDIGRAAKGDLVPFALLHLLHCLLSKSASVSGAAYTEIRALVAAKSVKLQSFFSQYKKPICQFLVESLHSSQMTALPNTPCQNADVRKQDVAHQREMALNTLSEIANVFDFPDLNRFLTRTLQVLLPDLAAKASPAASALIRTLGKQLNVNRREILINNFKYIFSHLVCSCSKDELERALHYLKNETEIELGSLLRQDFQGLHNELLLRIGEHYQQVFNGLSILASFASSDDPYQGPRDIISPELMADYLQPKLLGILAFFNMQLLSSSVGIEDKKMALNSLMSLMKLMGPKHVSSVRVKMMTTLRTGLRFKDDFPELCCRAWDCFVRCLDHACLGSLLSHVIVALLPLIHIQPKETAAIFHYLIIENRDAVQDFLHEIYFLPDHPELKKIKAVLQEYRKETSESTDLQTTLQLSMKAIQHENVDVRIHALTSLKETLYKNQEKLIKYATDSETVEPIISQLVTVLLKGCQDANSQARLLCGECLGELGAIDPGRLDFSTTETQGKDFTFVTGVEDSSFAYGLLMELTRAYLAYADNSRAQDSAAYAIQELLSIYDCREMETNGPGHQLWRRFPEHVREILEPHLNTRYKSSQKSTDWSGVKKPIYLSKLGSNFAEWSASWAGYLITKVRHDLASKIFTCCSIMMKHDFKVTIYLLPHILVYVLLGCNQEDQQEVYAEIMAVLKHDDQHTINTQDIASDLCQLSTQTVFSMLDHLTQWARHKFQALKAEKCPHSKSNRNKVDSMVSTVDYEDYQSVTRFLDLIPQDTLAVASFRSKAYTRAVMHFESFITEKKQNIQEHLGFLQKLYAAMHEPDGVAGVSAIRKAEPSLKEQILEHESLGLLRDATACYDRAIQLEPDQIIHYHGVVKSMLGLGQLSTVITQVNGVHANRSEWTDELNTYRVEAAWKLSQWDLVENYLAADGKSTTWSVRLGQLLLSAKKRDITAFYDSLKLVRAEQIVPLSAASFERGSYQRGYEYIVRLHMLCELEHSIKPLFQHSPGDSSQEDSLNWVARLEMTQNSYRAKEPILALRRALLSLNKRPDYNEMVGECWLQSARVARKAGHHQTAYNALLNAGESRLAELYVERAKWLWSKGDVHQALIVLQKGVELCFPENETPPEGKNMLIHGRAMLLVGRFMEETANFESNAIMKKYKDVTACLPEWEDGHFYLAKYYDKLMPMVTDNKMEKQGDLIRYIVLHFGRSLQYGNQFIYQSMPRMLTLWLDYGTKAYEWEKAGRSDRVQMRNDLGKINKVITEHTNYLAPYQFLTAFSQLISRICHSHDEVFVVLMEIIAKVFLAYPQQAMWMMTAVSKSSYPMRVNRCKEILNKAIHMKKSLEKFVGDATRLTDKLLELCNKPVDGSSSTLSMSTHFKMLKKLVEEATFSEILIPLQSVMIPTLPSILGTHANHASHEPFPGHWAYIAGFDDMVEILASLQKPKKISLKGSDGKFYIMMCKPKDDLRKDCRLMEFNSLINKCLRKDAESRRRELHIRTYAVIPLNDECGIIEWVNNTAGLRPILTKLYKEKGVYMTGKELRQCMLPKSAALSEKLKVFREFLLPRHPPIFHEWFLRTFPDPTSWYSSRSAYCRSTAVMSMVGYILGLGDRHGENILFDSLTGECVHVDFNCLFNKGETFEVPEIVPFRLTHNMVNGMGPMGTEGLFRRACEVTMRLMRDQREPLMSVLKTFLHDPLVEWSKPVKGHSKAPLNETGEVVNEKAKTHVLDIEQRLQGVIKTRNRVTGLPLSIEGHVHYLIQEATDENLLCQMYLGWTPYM

| Structure (SMILES) | inhibition [1] | inhibition [2] | inhibition [3] | Activity (Ramos) | growth at 10 µM (RPMI-8226) [%] | growth at 10 µM (A549) [%] | growth at 10 µM (HOP-62) [%] | growth at 10 µM (NCI-H226) [%] | growth at 10 µM (COLO 205) [%] | growth at 10 µM (HCC 2998) [%] | growth at 10 µM (HCT-116) [%] | growth at 10 µM (SF-268) [%] | growth at 10 µM (SF-539) [%] | growth at 10 µM (SNB-75) [%] | growth at 10 µM (U-251) [%] | growth at 10 µM (LOX IMVI) [%] | growth at 10 µM (M14) [%] | growth at 10 µM (MDA-MB-435) [%] | growth at 10 µM (SK-MEL-2) [%] | growth at 10 µM (OVCAR-3) [%] | also measured |
| --- | --- | --- | --- | --- | --- | --- | --- | --- | --- | --- | --- | --- | --- | --- | --- | --- | --- | --- | --- | --- | --- |
| CS(=O)(=NC#N)c1ccc(-c2cnc(N)c(C(=O)Nc3ccccc3)n2)cc1 (stereo unspecified) | Active | Active | inactive | Active | 105 | 63.1 | 97 | 92 | 88.3 | 105 | 86.8 | 87.7 | 69 | 56.9 | 68.5 | 66.5 | 77.7 | 87.7 | 94 | 89.4 | growth at 10 µM (OVCAR-5): 163%; growth at 10 µM (NCI/ADR-RES): 96.9%; growth at 10 µM (SK-OV-3): 56.8%; growth at 10 µM (A498): 76.1%; growth at 10 µM (CAKI-1): 47.2%; growth at 10 µM (RXF 393): 71%; growth at 10 µM (SN12C): 78.8%; growth at 10 µM (PC-3): 90.2%; growth at 10 µM (DU-145): 75.6%; growth at 10 µM (MDA-MB-231): 102%; growth at 10 µM (Hs-578T): 55%; growth at 10 µM (MDA-MB-468): 96.7%; Ratio [4]: 58.1 |
| C/S(=N\C#N)c1ccc(-c2cnc(N)c(C(=O)Nc3ccccc3)n2)cc1 (stereo unspecified) | Active | Active | inactive | Active | 101 | 85.4 | 110 | 88.5 | 76.9 | 109 | 73.1 | 88.4 | 85.7 | 65.2 | 93.2 | 77.8 | 69.5 | 84 | 92.2 | 83.4 | growth at 10 µM (OVCAR-5): 120%; growth at 10 µM (NCI/ADR-RES): 108%; growth at 10 µM (SK-OV-3): 68%; growth at 10 µM (A498): 86.3%; growth at 10 µM (CAKI-1): 53.2%; growth at 10 µM (RXF 393): 62.9%; growth at 10 µM (SN12C): 82.4%; growth at 10 µM (PC-3): 86%; growth at 10 µM (DU-145): 80.3%; growth at 10 µM (MDA-MB-231): 101%; growth at 10 µM (Hs-578T): 74.6%; growth at 10 µM (MDA-MB-468): 84.6%; Ratio [4]: 40.1 |

From ChEMBL document CHEMBL4020759, “Sulfoximines as ATR inhibitors: Analogs of VE-821” (2017)
